target: T1, Tyrosine-protein kinase ITK/TSK [357-620,Y512E] (Human, UniProt Q08881, Y512E); experiment: LanthaScreen Kinase Binding Assay
T1 construct: 357-620
Description: This assay is based on the binding and displacement of Alexa-fluor 647-labeled ATP-competitive kinase inhibitor tracer 236. Binding of the tracer is detected using a europium-labeled anti-tag antibody that binds to the purified recombinant tagged Itk protein. Binding of the tracer 236 is reversible and rapid, and simultaneous binding of the tracer and antibody results in fluorescence resonance energy transfer (FRET). Displacement of the tracer upon inhibitor binding results in a decrease of FRET. The assay can be read continuously, enabling rates of binding (and displacement) to be monitored.

T1 sequence (Q08881 357-620 Y512E): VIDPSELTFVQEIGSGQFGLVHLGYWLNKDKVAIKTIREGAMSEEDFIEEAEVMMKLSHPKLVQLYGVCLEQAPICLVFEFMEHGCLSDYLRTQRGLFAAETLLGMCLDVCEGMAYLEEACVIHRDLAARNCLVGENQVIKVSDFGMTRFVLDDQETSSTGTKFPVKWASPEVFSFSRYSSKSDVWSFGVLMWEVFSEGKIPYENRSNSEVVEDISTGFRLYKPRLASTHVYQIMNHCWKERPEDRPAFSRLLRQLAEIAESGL

| IC50 [nM] | Structure (SMILES) |
| --- | --- |
| 100 | O[C@H]1CC[C@H](Nc2nc(CN3CCOCC3)cc(Nc3nc4cccnc4s3)n2)CC1 [(trans)-4-((4-(Morpholinomethyl)-6-(thiazolo[5,4-b]pyridin-2-ylamino)pyrimidin-2-yl)amino)cyclohexanol (1)] |
| 5 | C=CC(=O)N1CC[C@H](Nc2cc(CN[C@@H](C)C(C)(C)C)cc(Nc3nc4cccnc4s3)n2)C1 |
| 7.9 | C=CC(=O)N1CC[C@H](Nc2cc(CN[C@H](C)C(C)(C)C)cc(Nc3nc4cccnc4s3)n2)C1 [1-((S)-3-((4-((((R)-3,3-Dimethylbutan-2-yl)amino)methyl)-6-(thiazolo[5,4-b]pyridin-2-ylamino)pyridin-2-yl)amino)pyrrolidin-1-yl)prop-2-en-1-one (13)] |
| 32 | C=CC(=O)N1CC[C@H](Nc2cc(CN(C)C)cc(Nc3nc4cccnc4s3)n2)C1 [(S)-1-(3-((4-((Dimethylamino)methyl)-6-(thiazolo[5,4-b]pyridin-2-ylamino)pyridin-2-yl)amino)pyrrolidin-1-yl)prop-2-en-1-one (11)] |
| 6.3 | C=CC(=O)N1CC[C@H](Nc2cc(CN3CCCCC3)cc(Nc3nc4cccnc4s3)n2)C1 [(S)-1-(3-((4-(Piperidin-1-ylmethyl)-6-(thiazolo[5,4-b]pyridin-2-ylamino)pyridin-2-yl)amino)pyrrolidin-1-yl)prop-2-en-1-one (10)] |
| 1300 | C=CC(=O)NCCNc1nc(CN2CCOCC2)cc(Nc2nc3cccnc3s2)n1 [N-(2-{[4-(4-Morpholinylmethyl)-6-([1,3]thiazolo[5,4-b]pyridin-2-ylamino)-2-pyrimidinyl]amino}ethyl)-2-propenamide (2)] |
| 40 | C/C=C/C(=O)N1CC[C@H](Nc2cc(CN3C[C@@H](C)O[C@@H](C)C3)cc(Nc3nc4cccnc4s3)n2)C1 [N-{(3S)-1-[(2E)-2-Butenoyl]-3-pyrrolidinyl}-4-{[cis-2,6-dimethyl-4-morpholinyl]methyl}-N'-[1,3]thiazolo[5,4-b]pyridin-2-yl-2,6-pyridinediamine (16)] |
| 250 | C=CC(=O)N[C@H]1CCC[C@@H](Nc2nc(CN3CCOCC3)cc(Nc3nc4cccnc4s3)n2)C1 (relative stereo) [N-(cis-3-{[4-(4-Morpholinylmethyl)-6-([1,3]thiazolo[5,4-b]pyridin-2-ylamino)-2-pyrimidinyl]amino}cyclohexyl)-2-propenamide (6)] |
| 500 | C=CC(=O)N1CC[C@H](Nc2nc(CN3CCOCC3)cc(Nc3nc4cccnc4s3)n2)C1 [N2-[(3S)-1-Acryloyl-3-pyrrolidinyl]-6-(4-morpholinylmethyl)-N4-[1,3]thiazolo[5,4-b]pyridin-2-yl-2,4-pyrimidinediamine (7)] |
| 5 | C=CC(=O)N1CC[C@H](Nc2cc(CN3C[C@@H](C)O[C@@H](C)C3)cc(Nc3nc4cccnc4s3)n2)C1 [N-[(3S)-1-Acryloyl-3-pyrrolidinyl]-4-{[cis-2,6-dimethyl-4-morpholinyl]methyl}-N'-[1,3]thiazolo[5,4-b]pyridin-2-yl-2,6-pyridinediamine (9)] |
| 320 | C=CC(=O)N[C@H]1CCCC[C@H]1Nc1nc(CN2CCOCC2)cc(Nc2nc3cccnc3s2)n1 (relative stereo) [N-(cis-2-{[4-(4-Morpholinylmethyl)-6-([1,3]thiazolo[5,4-b]pyridin-2-ylamino)-2-pyrimidinyl]amino}cyclohexyl)-2-propenamide (4)] |
| 320 | C=CC(=O)N1CCC(Nc2nc(CN3CCOCC3)cc(Nc3nc4cccnc4s3)n2)CC1 [N2-(1-Acryloyl-4-piperidinyl)-6-(4-morpholinylmethyl)-N4-[1,3]thiazolo[5,4-b]pyridin-2-yl-2,4-pyrimidinediamine (3)] |
| 2000 | C=CC(=O)N[C@H]1CC[C@H](Nc2nc(CN3CCOCC3)cc(Nc3nc4cccnc4s3)n2)CC1 [N-(trans-4-{[4-(4-Morpholinylmethyl)-6-([1,3]thiazolo[5,4-b]pyridin-2-ylamino)-2-pyrimidinyl]amino}cyclohexyl)-2-propenamide (5)] |
| 20000 | C=CC(=O)N1CC[C@@H](Nc2nc(CN3CCOCC3)cc(Nc3nc4cccnc4s3)n2)C1 [N2-[(3R)-1-Acryloyl-3-pyrrolidinyl]-6-(4-morpholinylmethyl)-N4-[1,3]thiazolo[5,4-b]pyridin-2-yl-2,4-pyrimidinediamine (14)] |

Reference: BindingDB's records for doi:10.1074/jbc.M113.474114 (Glaxosmithkline, 2013)
